Reference: PMC8400540, “Synthesis, Biological Evaluation, and In Silico Studies of New Acetylcholinesterase Inhibitors Based on Quinoxaline Scaffold” (Molecules, 2021)
Like-named read-outs stand apart in the source and are kept apart here.

Assays:
[1] = biological target: T1, human recombinant acetylcholinesterase (HuAChE) (Homo sapiens, UniProt P22303); assay: biochemical; conditions: for Selectivity BChE/AChE: Selectivity index for AChE: IC50 BChE/IC50 AChE
T1 construct: purchased Sigma-Aldrich
T1 sequence (P22303 32-614): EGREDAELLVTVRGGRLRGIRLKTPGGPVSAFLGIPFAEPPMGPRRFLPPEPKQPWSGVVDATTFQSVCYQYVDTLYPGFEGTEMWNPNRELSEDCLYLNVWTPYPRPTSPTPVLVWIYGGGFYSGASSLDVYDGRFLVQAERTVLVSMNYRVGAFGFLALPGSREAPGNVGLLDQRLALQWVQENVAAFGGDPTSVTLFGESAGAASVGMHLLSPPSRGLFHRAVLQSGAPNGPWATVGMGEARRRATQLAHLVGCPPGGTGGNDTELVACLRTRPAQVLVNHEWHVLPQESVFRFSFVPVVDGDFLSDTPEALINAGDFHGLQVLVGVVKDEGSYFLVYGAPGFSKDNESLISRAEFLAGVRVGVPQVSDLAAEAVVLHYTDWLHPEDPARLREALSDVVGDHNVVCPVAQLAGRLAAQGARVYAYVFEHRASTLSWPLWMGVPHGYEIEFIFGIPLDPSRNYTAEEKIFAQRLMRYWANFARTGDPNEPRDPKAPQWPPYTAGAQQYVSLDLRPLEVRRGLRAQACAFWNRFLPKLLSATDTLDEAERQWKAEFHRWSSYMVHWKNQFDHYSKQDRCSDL

[2] = biological target: T2, butyrylcholinesterase from equine serum (EqBChE) (Equus caballus, UniProt P81908); assay: biochemical; type: biochemical; conditions: for IC50: EqBChE, n = three independent experiments; for IC50 / inhibition at 100 µM: mean ± SD; for inhibition at 100 µM: n = three, read-out: %Inhibition BChE; for butyrylcholinesterase inhibitory activity (in words): screened at 100 µM
T2 construct: butyrylcholinesterase from equine serum (eqBChE); purchased Sigma-Aldrich; host or cells: equine serum
T2 sequence (P81908 whole entry): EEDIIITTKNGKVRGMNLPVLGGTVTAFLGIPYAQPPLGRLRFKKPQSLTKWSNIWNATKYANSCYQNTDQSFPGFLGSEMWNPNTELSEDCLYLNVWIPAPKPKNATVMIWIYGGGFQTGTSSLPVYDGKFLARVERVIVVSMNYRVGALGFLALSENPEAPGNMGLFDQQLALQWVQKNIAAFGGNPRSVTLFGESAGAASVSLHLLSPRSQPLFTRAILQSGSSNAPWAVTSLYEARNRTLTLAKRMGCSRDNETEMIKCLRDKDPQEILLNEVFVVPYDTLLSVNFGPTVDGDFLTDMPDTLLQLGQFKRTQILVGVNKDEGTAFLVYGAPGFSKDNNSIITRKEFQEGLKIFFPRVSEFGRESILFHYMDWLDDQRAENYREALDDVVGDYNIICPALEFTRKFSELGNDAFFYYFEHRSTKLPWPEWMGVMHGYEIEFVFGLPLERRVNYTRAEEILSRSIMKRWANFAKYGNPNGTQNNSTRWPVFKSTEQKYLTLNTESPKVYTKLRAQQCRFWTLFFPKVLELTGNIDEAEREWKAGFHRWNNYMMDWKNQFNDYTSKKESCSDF
Method: Initially, acetylcholinesterase and butyrylcholinesterase inhibitory activities of the compounds were screened at the concentration of 100 µM. […] The raw data of IC50 in this study were able to be accessed in Supplementary Materials.
Human recombinant acetylcholinesterase (HuAChE), butyrylcholinesterase from equine serum (eqBChE), acetylthiocholine iodide (ATCI), butyrylthiocholine iodide (BTCI) and 5,5′-dithiobis(2-nitrobenzoic acid) (DTNB) were gained from Sigma-Aldrich. Assays of acetyl- and butyrylcholinesterase inhibitory activity were performed according to Ellman’s method described previously. Briefly, these assays were performed as follows. The reaction mixture (250 µL), containing 50 µL of buffer (50 mM Tris-HCl buffer (pH 8.0), 0.1 M NaCl, 0.02 M MgCl2.6H2O), 25 µL of 1.5 mM of ATCI or BTCI, 25 µL of 100 µM of test compounds in EtOH and 125 µL of 3 mM DTNB were added. Then, 25 µL of HuAChE and equine serum of BChE in 50 mM Tris-HCl buffer containing 0.1% (w/v) BSA (pH 8.0). Reactions were initiated by the addition of the enzyme into the medium. […] Each experiment was repeated in triplicate.
The percentage of enzyme inhibitory activity (%Inhibition) was calculated by the following expression: %Inhibition = ((Mean velocity of blank-Mean velocity of sample) × 100)/Mean velocity of blank.

[3] = Cytotoxicity, sulforhodamine B (SRB) assay; type: cell-based; conditions: human, SH-SY5Y neuroblastoma cells, up to 100 µM, read-out: LC50
Method: Selected compounds in the series were then evaluated for their cytotoxicity against SH-SY5Y neuron cells. […].
Figure 3 The cytotoxic effect of synthesized compounds on SH-SY5Y cells as determined by SRB assay. Cells were treated with the synthesized compounds at different concentrations for 48 h, and then SRB assay was performed. Data are means ± SD of three independent experiments, and %cell viability was calculated relative to nontreated control.
The cytotoxicity assay of the tested compounds against human SH-SY5Y neuroblastoma cells was measured using a sulforhodamine B (SRB) assay. The cells were cultured in Dulbecco’s modified Eagle’s medium supplemented with 10% fetal bovine serum (Gibco, Paisley, UK) and grown at 37 °C in a humid atmosphere containing 5% CO2. Cells (10,000 cells/well) were seeded in a 96-well plate and incubated at 37 °C, 5% CO2 for 24 h. The cells were then treated with or without various concentrations (0, 3.125, 6.25, 12.5, 25, 50, and 100 μM) of each compound for 48 h. After an incubation period, 40% (w/v) trichloroacetic acid (TCA) was added to the cells, and the cells were then incubated at 4 °C for 1 h. A total of 0.4% (w/v) SRB solution (100 μL) was added to each well, and the cells were incubated for 1 h at room temperature. The SRB solution was removed, and then the cells were washed three times with 1% (v/v) acetic acid, and they were allowed to dry at room temperature. The protein-bound dye was dissolved with 10 mM Tris base solution, and the absorbance was measured at 492 nm using a microplate reader.

[4] = biological target: T3, Human recombinant AChE (Homo sapiens, UniProt P22303); assay: Enzyme kinetic study of AChE inhibition (Lineweaver-Burk); type: biochemical
T3 construct: purchased Sigma-Aldrich
T3 sequence (P22303 32-614): as the sequence (P22303 32-614) above
Method: […]. The kinetic assay of AChE inhibition was carried out at 0, 30, 50 and 60 µM of compound 6c. […]. [ATCI], substrate concentration (µM); V, reaction velocity (1/V (abs/min)^−1).
Kinetic studies of HuAChE were performed by Ellman’s method as described above. […]. Kinetic characterization of the hydrolysis of ATCI for HuAChE was carried out spectrometrically at 405 nm every 11 s for 2 min. A parallel control was run with the assay solution without inhibitor. The inhibition was evaluated by Lineweaver–Burk plot from substrate concentrations range between 10 to 250 µM for ATCI and inhibitor concentrations (0, 30, 50, 60 µM). The type of inhibition (competitive, uncompetitive, noncompetitive and mixed type inhibition) was calculated from the Michaelis–Menten equation was converted to Lineweaver–Burk equation into a straight line by plotting 1/velocity opposite to 1/[S]. Graphs were plotted by means of GraphPad Prism 7.03 for Windows (GraphPad Software, San Diego, CA, USA, www.graphpad.com, accessed on 13 May 2021).
From obtained equations of regression curves in the Lineweaver-Burk plot, the values of maximum velocity (Vm) and Michealis constant (Km) were calculated. Using non-linear regression (selected panel: enzyme kinetic inhibition/ mixed model inhibition) the values of Ki and alpha were determined. The alpha value defines the mechanism. […]

[5] = HuAChE, mean ± SD, n = three independent experiments, read-out: IC50 AChE

c1ccc(-c2cnc3ccccc3n2)cc1 [Compound 3b, 2-Phenylquinoxaline]
IC50 [1, 5]: 50.1 ± 2.6 µM
Selectivity BChE/AChE [1]: 0.29
IC50 [2]: 14.9 ± 2.6 µM

Cc1nc2ccc(Cl)cc2nc1C [Compound 4c, 6-Chloro-2,3-dimethylquinoxaline]
IC50 [1, 5]: 10.7 ± 1.4 µM
inhibition at 100 µM [2]: 37.4%
butyrylcholinesterase inhibitory activity (in words) [2]: no activity

Nc1ccc2ncc(-c3ccccc3)nc2c1 [Compound 6b, 3-Phenylquinoxalin-6-amine]
IC50 [1, 5]: 1.31 ± 0.2 µM
inhibition at 100 µM [2]: 44.1%
CC50 at 48 h [3]: > 100 µM

Cc1nc2ccc(N)cc2nc1C [Compound 6c, 2,3-Dimethylquinoxalin-6-amine]
IC50 [1, 5]: 0.077 ± 0.01 µM
inhibition at 100 µM [2]: 29.2%
butyrylcholinesterase inhibitory activity (in words) [2]: no activity
type of AChE inhibition ([4]; Lineweaver-Burk plot): mixed-type inhibitor
Alpha ([4]; non-linear regression, mixed model inhibition): 0.1875
CC50 at 48 h [3]: > 100 µM

c1ccc2nccnc2c1 [Compound 3a, Quinoxaline]
IC50 [1]: 13.2 ± 4.1 µM
Selectivity BChE/AChE [1]: 3.07
IC50 [2]: 40.6 ± 1.6 µM

Nc1ccc2nccnc2c1 [Compound 6a, Quinoxalin-6-amine]
IC50 [1]: 0.74 ± 0.5 µM
inhibition at 100 µM [2]: 32.9%
CC50 at 48 h [3]: > 100 µM

O=[N+]([O-])c1ccc2ncc(-c3ccccc3)nc2c1 [Compound 5b, 7-Nitro-2-phenylquinoxaline]
IC50 [1, 5]: 39 ± 0.8 µM
Selectivity BChE/AChE [1]: 1.56
IC50 [2]: 61 ± 3.4 µM

Cc1nc2ccccc2nc1C [Compound 3c, 2,3-Dimethylquinoxaline]
IC50 [1]: 7.25 ± 1.5 µM
inhibition at 100 µM [2]: 23.4%
butyrylcholinesterase inhibitory activity (in words) [2]: no activity

O=[N+]([O-])c1ccc2nccnc2c1 [Compound 5a, 6-Nitroquinoxaline]
IC50 [1, 5]: 21.3 ± 1.5 µM
Selectivity BChE/AChE [1]: 1.97
IC50 [2]: 42 ± 1 µM

Clc1ccc2nccnc2c1 [Compound 4a, 6-Chloroquinoxaline]
IC50 [1]: 23.9 ± 1.3 µM
inhibition at 100 µM [2]: 37.4%

Cc1nc2ccc([N+](=O)[O-])cc2nc1C [Compound 5c, 2,3-Dimethyl-6-nitroquinoxaline]
IC50 [1, 5]: 8.42 ± 1.8 µM
inhibition at 100 µM [2]: 32.1%
butyrylcholinesterase inhibitory activity (in words) [2]: no activity

Clc1ccc2ncc(-c3ccccc3)nc2c1 [Compound 4b, 7-Chloro-2-phenylquinoxaline]
IC50 [1, 5]: 28.5 ± 1.6 µM
inhibition at 100 µM [2]: 41.2%
